{
  "source": "paper PMC5218480",
  "about": "(PLoS ONE, 2017)",
  "test_system": "MV-4-11 cells",
  "assay": "Gene expression microarray analysis (Affymetrix PrimeView) and GSEA",
  "format": "cell-based, human",
  "parameters": "RFU PODN (11730768_x_at) / Fold change /veh PODN (11730768_x_at) / RFU LINC00158 (11744669_a_at) / Fold change /veh LINC00158 (11744669_a_at) / RFU DUSP10 (11751237_a_at) / Fold change /veh DUSP10 (11751237_a_at) / RFU ID3 (11757404_x_at) / Fold change /veh ID3 (11757404_x_at) / RFU PLEKHG5 (11737974_s_at) / Fold change /veh PLEKHG5 (11737974_s_at) / RFU LRRC4B (11730491_at) / Fold change /veh LRRC4B (11730491_at) / RFU GIMAP4 (11747438_a_at) / Fold change /veh GIMAP4 (11747438_a_at) / RFU KRT8 (11758183_x_at) / Fold change /veh KRT8 (11758183_x_at) / RFU CNN1 (11734310_a_at) / Fold change /veh CNN1 (11734310_a_at) / RFU VPS37D (11726825_at) / Fold change /veh VPS37D (11726825_at) / RFU C10orf10 (11716522_x_at) / Fold change /veh C10orf10 (11716522_x_at) / RFU KIR2DL2 /// KIR2DL4 /// KIR2DL5A /// KIR2DL5B /// KIR2DS1 /// KIR2DS2 /// KIR2DS3 /// KIR2DS4 /// KIR3DL3 /// KIR3DL3 /// KIR3DS1 (11738374_at) / Fold change /veh KIR2DL2 /// KIR2DL4 /// KIR2DL5A /// KIR2DL5B /// KIR2DS1 /// KIR2DS2 /// KIR2DS3 /// KIR2DS4 /// KIR3DL3 /// KIR3DL3 /// KIR3DS1 (11738374_at) / RFU C1QL1 (11718748_at) / Fold change /veh C1QL1 (11718748_at) / RFU TMPRSS4 (11747572_a_at) / Fold change /veh TMPRSS4 (11747572_a_at) / RFU HAMP (11756126_x_at) / Fold change /veh HAMP (11756126_x_at) / RFU RNFT2 (11725882_a_at) / Fold change /veh RNFT2 (11725882_a_at) / RFU NR4A2 (11747474_a_at) / Fold change /veh NR4A2 (11747474_a_at) / RFU ABCC12 (11746883_a_at) / Fold change /veh ABCC12 (11746883_a_at) / RFU TMEM136 (11760407_x_at) / Fold change /veh TMEM136 (11760407_x_at) / RFU CLDN22 /// WWC2 (11732394_at) / Fold change /veh CLDN22 /// WWC2 (11732394_at) / RFU HLA-DPB1 (11760878_x_at) / Fold change /veh HLA-DPB1 (11760878_x_at) / RFU SPINT1 (11716480_a_at) / Fold change /veh SPINT1 (11716480_a_at) / RFU GAP43 (11754022_s_at) / Fold change /veh GAP43 (11754022_s_at) / RFU A4GNT (11735810_at) / Fold change /veh A4GNT (11735810_at) / RFU PRB3 (11715151_x_at) / Fold change /veh PRB3 (11715151_x_at) / RFU TUBB4B (11761932_at) / Fold change /veh TUBB4B (11761932_at) / RFU CAPN14 (11732068_a_at) / Fold change /veh CAPN14 (11732068_a_at) / RFU TMCC2 (11721928_a_at) / Fold change /veh TMCC2 (11721928_a_at) / RFU IRGQ (11745062_a_at) / Fold change /veh IRGQ (11745062_a_at) / RFU FAM174B (11720279_a_at) / Fold change /veh FAM174B (11720279_a_at) / RFU TMPRSS4 (11748680_a_at) / Fold change /veh TMPRSS4 (11748680_a_at) / RFU FAM212B (11763350_a_at) / Fold change /veh FAM212B (11763350_a_at) / RFU PLEKHG5 (11743358_a_at) / Fold change /veh PLEKHG5 (11743358_a_at) / RFU ZSCAN30 (11745921_a_at) / Fold change /veh ZSCAN30 (11745921_a_at) / RFU CMKLR1 (11741424_a_at) / Fold change /veh CMKLR1 (11741424_a_at) / RFU LOC101060620 /// MAPK8IP1 (11723275_at) / Fold change /veh LOC101060620 /// MAPK8IP1 (11723275_at) / RFU SPTSSB (11747773_x_at) / Fold change /veh SPTSSB (11747773_x_at) / RFU PRSS12 (11739890_at) / Fold change /veh PRSS12 (11739890_at) / RFU BIN1 (11741810_x_at) / Fold change /veh BIN1 (11741810_x_at) / RFU WNT11 (11732464_a_at) / Fold change /veh WNT11 (11732464_a_at) / RFU C10orf10 (11716521_a_at) / Fold change /veh C10orf10 (11716521_a_at) / RFU C5orf56 (11738089_at) / Fold change /veh C5orf56 (11738089_at) / RFU CYB561 (11721691_x_at) / Fold change /veh CYB561 (11721691_x_at) / RFU ANKRD19P (11752326_a_at) / Fold change /veh ANKRD19P (11752326_a_at) / RFU OR2T12 /// OR2T33 /// OR2T8 (11738714_s_at) / Fold change /veh OR2T12 /// OR2T33 /// OR2T8 (11738714_s_at) / RFU VCAN (11748164_a_at) / Fold change /veh VCAN (11748164_a_at) / RFU JSRP1 (11732532_at) / Fold change /veh JSRP1 (11732532_at) / RFU KRTAP10-11 (11738290_x_at) / Fold change /veh KRTAP10-11 (11738290_x_at) / RFU MYO3A (11730013_a_at) / Fold change /veh MYO3A (11730013_a_at) / RFU EBF3 (11725865_a_at) / Fold change /veh EBF3 (11725865_a_at) / RFU CAMK2N1 (11719241_x_at) / Fold change /veh CAMK2N1 (11719241_x_at) / RFU C5orf56 (11738088_a_at) / Fold change /veh C5orf56 (11738088_a_at) / RFU OLFML3 (11715873_a_at) / Fold change /veh OLFML3 (11715873_a_at) / RFU LOC100653217 /// NTM (11731650_a_at) / Fold change /veh LOC100653217 /// NTM (11731650_a_at) / RFU MAPK11 (11762145_a_at) / Fold change /veh MAPK11 (11762145_a_at) / RFU FIZ1 (11724087_x_at) / Fold change /veh FIZ1 (11724087_x_at) / RFU OASL (11726364_x_at) / Fold change /veh OASL (11726364_x_at) / RFU SOX15 (11748057_x_at) / Fold change /veh SOX15 (11748057_x_at) / RFU CD79A (11719716_a_at) / Fold change /veh CD79A (11719716_a_at) / RFU HIST1H1D (11736915_at) / Fold change /veh HIST1H1D (11736915_at) / RFU CASKIN2 (11723855_a_at) / Fold change /veh CASKIN2 (11723855_a_at) / RFU LOC730098 (11760151_x_at) / Fold change /veh LOC730098 (11760151_x_at) / RFU OR4N2 (11742367_at) / Fold change /veh OR4N2 (11742367_at) / RFU PRRT2 (11749266_a_at) / Fold change /veh PRRT2 (11749266_a_at) / RFU SNX32 (11753110_a_at) / Fold change /veh SNX32 (11753110_a_at) / RFU CDHR5 (11726645_a_at) / Fold change /veh CDHR5 (11726645_a_at) / RFU RCAN1 (11760418_a_at) / Fold change /veh RCAN1 (11760418_a_at) / RFU FAM167A (11723789_a_at) / Fold change /veh FAM167A (11723789_a_at) / RFU FAM26E (11764081_at) / Fold change /veh FAM26E (11764081_at) / RFU ISYNA1 (11749810_s_at) / Fold change /veh ISYNA1 (11749810_s_at) / RFU ACY1 (11761880_at) / Fold change /veh ACY1 (11761880_at) / RFU 11764098_at / Fold change /veh 11764098_at / RFU SAMD14 (11745864_x_at) / Fold change /veh SAMD14 (11745864_x_at) / RFU NPB (11741838_a_at) / Fold change /veh NPB (11741838_a_at) / RFU TMPRSS6 (11731388_a_at) / Fold change /veh TMPRSS6 (11731388_a_at) / RFU KRTAP10-2 (11738614_at) / Fold change /veh KRTAP10-2 (11738614_at) / RFU ARHGAP8 /// PRR5-ARHGAP8 (11727945_x_at) / Fold change /veh ARHGAP8 /// PRR5-ARHGAP8 (11727945_x_at) / RFU KRTAP5-7 /// NADSYN1 (11734609_at) / Fold change /veh KRTAP5-7 /// NADSYN1 (11734609_at) / RFU RASL12 (11751679_a_at) / Fold change /veh RASL12 (11751679_a_at) / RFU CDKN2B (11736163_a_at) / Fold change /veh CDKN2B (11736163_a_at) / RFU PRF1 (11729649_at) / Fold change /veh PRF1 (11729649_at) / RFU, ZNF638 /// ZNF638-IT1 / Fold change vs veh, ZNF638 /// ZNF638-IT1 / RFU, PANK3 / Fold change vs veh, PANK3 / RFU, SH3YL1 / Fold change vs veh, SH3YL1 / RFU, ZEB2 / Fold change vs veh, ZEB2 / RFU, NRIP1 / Fold change vs veh, NRIP1 / RFU, PTTG1IP / Fold change vs veh, PTTG1IP / RFU, CAPN2 / Fold change vs veh, CAPN2 / RFU, MED14 / Fold change vs veh, MED14 / RFU, SNORA58 / Fold change vs veh, SNORA58 / RFU, C1orf63 / Fold change vs veh, C1orf63 / RFU, LRRFIP1 / Fold change vs veh, LRRFIP1 / RFU, NDUFAF7 / Fold change vs veh, NDUFAF7 / RFU, SLC12A2 / Fold change vs veh, SLC12A2 / RFU, IBTK / Fold change vs veh, IBTK / RFU, ESF1 / Fold change vs veh, ESF1 / Fold change vs veh, TMEM50B / RFU, TAOK1 / Fold change vs veh, TAOK1 / RFU, ACBD3 / Fold change vs veh, ACBD3 / RFU, TMA16 / Fold change vs veh, TMA16 / RFU, RWDD3 / Fold change vs veh, RWDD3 / RFU, BCAT1 / Fold change vs veh, BCAT1 / RFU, EDEM3 / Fold change vs veh, EDEM3 / RFU, TMEM33 / Fold change vs veh, TMEM33 / RFU, WDR75 / Fold change vs veh, WDR75 / RFU, AHCTF1 / Fold change vs veh, AHCTF1 / RFU, TFRC / Fold change vs veh, TFRC / RFU, ZDHHC17 / Fold change vs veh, ZDHHC17 / RFU, NOM1 / Fold change vs veh, NOM1 / RFU, ARL8B / Fold change vs veh, ARL8B / RFU, ZBTB11 / Fold change vs veh, ZBTB11 / RFU, TAMM41 / Fold change vs veh, TAMM41 / RFU, KIAA1704 /// LOC100996395 / Fold change vs veh, KIAA1704 /// LOC100996395 / RFU, ING1 / Fold change vs veh, ING1 / RFU, TRMT61B / Fold change vs veh, TRMT61B / RFU, FUBP3 / Fold change vs veh, FUBP3 / RFU, TP53 / Fold change vs veh, TP53 / RFU, TNKS2 / Fold change vs veh, TNKS2 / RFU, ZFP14 / Fold change vs veh, ZFP14 / RFU, ACTR2 / Fold change vs veh, ACTR2 / RFU, PPP3R1 / Fold change vs veh, PPP3R1 / RFU, PIK3R1 / Fold change vs veh, PIK3R1 / RFU, HNRNPA1 / Fold change vs veh, HNRNPA1 / RFU, RNF170 / Fold change vs veh, RNF170 / RFU, ZNF28 / Fold change vs veh, ZNF28 / RFU, RNGTT / Fold change vs veh, RNGTT / RFU, OGT / Fold change vs veh, OGT / RFU, BRD1 / Fold change vs veh, BRD1 / RFU, MARS / Fold change vs veh, MARS / RFU, ZNF655 / Fold change vs veh, ZNF655 / RFU, FAHD1 / Fold change vs veh, FAHD1 / RFU, BDP1 / Fold change vs veh, BDP1 / RFU, LRRCC1 / Fold change vs veh, LRRCC1 / RFU, ARID1A / Fold change vs veh, ARID1A / RFU, ZNF146 / Fold change vs veh, ZNF146 / RFU, ZNF330 / Fold change vs veh, ZNF330 / RFU, GPN3 / Fold change vs veh, GPN3 / RFU, C9orf123 / Fold change vs veh, C9orf123 / RFU, N4BP2L2 / Fold change vs veh, N4BP2L2 / RFU, ARFIP1 / Fold change vs veh, ARFIP1 / RFU, FAM179B / Fold change vs veh, FAM179B / RFU, BCL10 / Fold change vs veh, BCL10 / RFU, UHRF1BP1L / Fold change vs veh, UHRF1BP1L / RFU, BET1 / Fold change vs veh, BET1 / RFU, CNOT2 / Fold change vs veh, CNOT2 / RFU, ZNF268 / Fold change vs veh, ZNF268 / Fold change vs veh, ZNF507 / RFU, DGCR2 / Fold change vs veh, DGCR2 / RFU, WDSUB1 / Fold change vs veh, WDSUB1 / Fold change vs veh, HSP90B1 /// MIR3652 / RFU, ADSS / Fold change vs veh, ADSS / RFU, GK / Fold change vs veh, GK / RFU, ZNF148 / Fold change vs veh, ZNF148 / RFU, TAF9 / Fold change vs veh, TAF9 / RFU, SLC1A5 / Fold change vs veh, SLC1A5 / RFU, SLMO2 / Fold change vs veh, SLMO2 / RFU, ABCC4 / Fold change vs veh, ABCC4 / RFU, LOC101060439 /// RAP1B / Fold change vs veh, LOC101060439 /// RAP1B / RFU, RFX7 / Fold change vs veh, RFX7 / RFU, GTPBP10 / Fold change vs veh, GTPBP10 / RFU, CNEP1R1 / Fold change vs veh, CNEP1R1 / RFU, BIVM-ERCC5 /// ERCC5 / Fold change vs veh, BIVM-ERCC5 /// ERCC5 / RFU, ILF3 / Fold change vs veh, ILF3 / RFU 11762660_at / Fold change /veh 11762660_at / RFU VCAN (11757783_s_at) / Fold change /veh VCAN (11757783_s_at) / RFU DDX43 (11728927_at) / Fold change /veh DDX43 (11728927_at) / RFU KRT8 (11758188_x_at) / Fold change /veh KRT8 (11758188_x_at) / RFU NKD1 (11759106_at) / Fold change /veh NKD1 (11759106_at) / RFU SRD5A1 (11742802_a_at) / Fold change /veh SRD5A1 (11742802_a_at) / RFU TPSAB1 /// TPSB2 (11721975_s_at) / Fold change /veh TPSAB1 /// TPSB2 (11721975_s_at) / RFU GSTM3 (11746129_a_at) / Fold change /veh GSTM3 (11746129_a_at) / RFU IL23R (11737362_x_at) / Fold change /veh IL23R (11737362_x_at) / RFU TMEM51 (11727254_a_at) / Fold change /veh TMEM51 (11727254_a_at) / RFU PIWIL2 (11732686_x_at) / Fold change /veh PIWIL2 (11732686_x_at) / RFU ORM1 (11744905_x_at) / Fold change /veh ORM1 (11744905_x_at) / RFU CCDC152 (11743942_at) / Fold change /veh CCDC152 (11743942_at) / RFU ECM1 (11717891_a_at) / Fold change /veh ECM1 (11717891_a_at) / RFU IL23R (11748794_a_at) / Fold change /veh IL23R (11748794_a_at) / RFU TNFAIP8L3 (11732012_x_at) / Fold change /veh TNFAIP8L3 (11732012_x_at) / RFU MBOAT4 (11741988_at) / Fold change /veh MBOAT4 (11741988_at) / RFU 11764193_at / Fold change /veh 11764193_at / RFU TMEM53 (11763286_at) / Fold change /veh TMEM53 (11763286_at) / RFU MAGEB2 (11727129_at) / Fold change /veh MAGEB2 (11727129_at) / RFU TMEM200A (11744735_a_at) / Fold change /veh TMEM200A (11744735_a_at) / RFU CCDC152 (11751479_a_at) / Fold change /veh CCDC152 (11751479_a_at) / RFU FAM211A (11726209_a_at) / Fold change /veh FAM211A (11726209_a_at) / RFU RGS16 (11746705_a_at) / Fold change /veh RGS16 (11746705_a_at) / RFU VCAN (11755009_s_at) / Fold change /veh VCAN (11755009_s_at) / RFU RHOB (11743442_s_at) / Fold change /veh RHOB (11743442_s_at) / RFU RGS16 (11720943_a_at) / Fold change /veh RGS16 (11720943_a_at) / RFU RGS16 (11720944_at) / Fold change /veh RGS16 (11720944_at) / RFU, VPS4B / Fold change vs veh, VPS4B / RFU, CREB1 / Fold change vs veh, CREB1 / RFU, DNAJC13 / Fold change vs veh, DNAJC13 / RFU, GNAQ / Fold change vs veh, GNAQ / RFU, CDK5R1 / Fold change vs veh, CDK5R1 / RFU, ZRANB3 / Fold change vs veh, ZRANB3 / RFU, CUL4A / Fold change vs veh, CUL4A / RFU, CCNY / Fold change vs veh, CCNY / RFU, UFL1 / Fold change vs veh, UFL1 / RFU, COG3 / Fold change vs veh, COG3 / RFU, DIAPH2 / Fold change vs veh, DIAPH2 / RFU, SKA2 / Fold change vs veh, SKA2 / RFU, AFF3 / Fold change vs veh, AFF3 / RFU, LMF1 / Fold change vs veh, LMF1 / RFU, IPO11 / Fold change vs veh, IPO11 / RFU, DFFB / Fold change vs veh, DFFB / RFU, FOXP1 / Fold change vs veh, FOXP1 / RFU, CARD8 / Fold change vs veh, CARD8 / RFU, STRN3 / Fold change vs veh, STRN3 / RFU, ADK / Fold change vs veh, ADK / RFU, RASSF2 / Fold change vs veh, RASSF2 / RFU, WIPF1 / Fold change vs veh, WIPF1 / RFU, LARP1B / Fold change vs veh, LARP1B / RFU, RASA1 / Fold change vs veh, RASA1 / RFU, RB1 / Fold change vs veh, RB1 / RFU, PPFIA1 / Fold change vs veh, PPFIA1 / RFU, MAT2A / Fold change vs veh, MAT2A / RFU, CCT5 / Fold change vs veh, CCT5 / RFU, WDR92 / Fold change vs veh, WDR92 / RFU, CUX1 / Fold change vs veh, CUX1 / RFU, TTC7A / Fold change vs veh, TTC7A / RFU, TMEM135 / Fold change vs veh, TMEM135 / RFU, DEPTOR / Fold change vs veh, DEPTOR / RFU, CPM / Fold change vs veh, CPM / RFU, DNAJB6 / Fold change vs veh, DNAJB6 / RFU, CACNA2D3 / Fold change vs veh, CACNA2D3 / RFU, DTX4 / Fold change vs veh, DTX4 / RFU, TFCP2 / Fold change vs veh, TFCP2 / RFU, GMCL1 /// GMCL1P1 / Fold change vs veh, GMCL1 /// GMCL1P1 / RFU, AEBP2 / Fold change vs veh, AEBP2 / RFU, SNHG1 /// SNORD22 /// SNORD25 /// SNORD26 /// SNORD27 /// SNORD28 /// SNORD29 /// SNORD31 / Fold change vs veh, SNHG1 /// SNORD22 /// SNORD25 /// SNORD26 /// SNORD27 /// SNORD28 /// SNORD29 /// SNORD31 / Fold change (Aza/veh), C12orf56 (ProbeSet 11735607_a_at) / Fold change (ACY-1035/veh), C12orf56 (ProbeSet 11735607_a_at) / Fold change (Aza/veh), FGFR1OP (ProbeSet 11751329_s_at) / Fold change (ACY-1035/veh), FGFR1OP (ProbeSet 11751329_s_at) / Fold change (Aza/veh), VPS36 (ProbeSet 11739960_a_at) / Fold change (ACY-1035/veh), VPS36 (ProbeSet 11739960_a_at) / RFU SYPL1 (11715823_x_at) / Fold change /veh SYPL1 (11715823_x_at) / RFU IGFBP7 (11715501_s_at) / Fold change /veh IGFBP7 (11715501_s_at) / RFU REEP3 (11722064_at) / Fold change /veh REEP3 (11722064_at) / RFU IGLL1 (11728026_x_at) / Fold change /veh IGLL1 (11728026_x_at): dose or concentration left out as unconfirmed",
  "conditions": "ProbeSet 11733108_at; LIST D",
  "data": [
    {"smiles": "Nc1ncn([C@@H]2O[C@H](CO)[C@@H](O)[C@H]2O)c(=O)n1", "note": "[azacitidine]", "values": [
      {"measurement": "Fold change vs veh, GNAQ", "result": 0.77}
    ]}
  ]
}
